In patent US10442813B2, “Polymorphs of rucaparib camsylate and methods of making same” (RK Pharma Solutions LLC, priority 2018, dated 2019):
Where a name gives a salt, the structure may show the parent alone. Read-outs that look alike come from different tables or passages of the source.

Assay: Solubility of rucaparib camsylate Form beta in USP standard buffers adjusted to different pHs, 37° C.
Format: physicochemical
Experimental: The solubility of rucaparib camsylate Form beta was investigated in USP standard buffers adjusted to different pHs. For pH 1.2, the buffer solution included 3.73 g of potassium chloride dissolved in 100 ml of water which was mixed with […] of 0.2 M hydrochloric acid. Water was added to bring the volume to 1000 ml. For pH 4.5, the buffer solution included 2.99 g of sodium acetate dissolved in 100 ml of water which was mixed with 14 ml of 2 N acetic acid. Water was added to bring the volume to 1000 ml. For pH 6.0, the buffer preparation included 6.80 g of potassium phosphate dissolved in 100 ml of water which was mixed with 28 ml of 0.2 M sodium hydroxide. Water was added to bring the volume to 1000 ml. For pH 6.8, the buffer preparation included 6.80 g of potassium phosphate dissolved in 100 ml of water, which was mixed with 112 ml of 0.2 M sodium hydroxide. Water was added to volume of 1000 ml. For pH 8.0, the buffer preparation included 3.09 of boric acid and 3.73 g of potassium chloride dissolved in 100 ml of water, which was mixed with 19.5 ml of 0.2 sodium hydroxide. Water was added to bring volume to 1000 ml.

- solubility (USP buffer pH 8.0, 37° C.): Very slightly soluble
- solubility (USP buffer pH 8.0, 37° C., listed as rucaparib camsylate Form beta): slightly soluble
- solubility (USP standard buffer pH 1.2, simulated gastric fluid, thermodynamic from solid, USP buffer pH 1.2, 37° C., read-out: Solubility): < 100 µg/mL
- solubility (USP standard buffer pH 4.5, aqueous buffer, thermodynamic from solid, USP buffer pH 4.5, 37° C., read-out: Solubility): < 100 µg/mL
- solubility (USP standard buffer pH 6.0, aqueous buffer, thermodynamic from solid, USP buffer pH 6.0, 37° C., read-out: Solubility): < 100 µg/mL
- solubility (USP standard buffer pH 6.8, aqueous buffer, thermodynamic from solid, USP buffer pH 6.8, 37° C., read-out: Solubility): < 100 µg/mL
- solubility (most pH values (all tested except pH 8)): practically insoluble
- solubility (thermodynamic from solid, Water, 37° C., read-out: Solubility): < 100 µg/mL
Structure (SMILES): CNCc1ccc(-c2[nH]c3cc(F)cc4c3c2CCNC4=O)cc1 [Rucaparib Form beta, 8-fluoro-2-{4-[(methylamino)methyl]phenyl}-1,3,4,5-tetrahydro-6H-azepino[5,4,3-cd]indol-6-one ((1S,4R)-7,7dimethyl-2-oxobicyclo[2.2.1]hept-1-yl)methanesulfonic acid salt]
